The source of these data is publication PMC4370192, “Discovery of Specific Inhibitors for Intestinal E. coli β-Glucuronidase through In Silico Virtual Screening” (The Scientific World Journal, 2015).

For test [1], the target named is T1, E. coli β-glucuronidase (eβG) (Escherichia coli, UniProt P05804).
T1 construct: histidine tag (N); made in house; host or cells: E. coli BL21 (DE3)
Description: In vitro βG-activity assay (pNPG hydrolysis), eβG. The format is biochemical. To be noted: 50 μM compound, pH 7.3, percent of activity vs untreated control. How it is done: (§1) Plasmid pRESTB containing βG gene and a histidine tag at the N-terminus was constructed as described. Recombinant βG (human and E. coli) was produced by isopropyl β-D-thiogalactopyranoside (IPTG) induction of BL21 (DE3) bacteria. βG was purified from bacterial supernatants by affinity chromatography on nickels Sepharose 6 Fast Flow (GE Healthcare). The column was washed by phosphate-buffered saline (PBS), with 50 mM imidazole, and βG was eluted by PBS with 250 mM imidazole. The purified βG was desalted on a Sephadex G-25 column equilibrated with PBS and stored at −80°C.
The candidate compounds were purchased from SPECS (The Netherlands). Each candidate was provided as a solid power and dissolved in 100% DMSO (Sigma-Aldrich) to 10 mM as stock. Candidates were screened for their inhibition specificity of eβG versus hβG, which were conducted at pH 7.3 or pH 5.4, in triplicate, respectively. 40 μL purified βG was treated with 10 μL compound solution at 37°C for 30 min and sequentially incubated with 50 μL of pNPG (Sigma-Aldrich) at 37°C for 30 min. Reactions were quenched with 5 μL of 2 N sodium hydroxide (Sigma-Aldrich). Each reaction consisted of 3.75 ng purified βG, 50 μM compound, and 5 mM pNPG in PBS containing 10% DMSO and 0.05% BSA (Sigma-Aldrich). βG-activities were measured by color development of pNP detected on a microplate reader at OD 405 nm. […] For IC50 determination, compounds at various concentrations (100 μM to 0.001 μM) were added.
Supplementary file 740815.f1.pdf: Fifty-nine candidate compounds were acquired from the initial virtually screening which was designed to target the bacterial loop of eβG and its active site. The docking energy scores of 59 candidate compounds measured by the DOCK program are -43 to -55 kcal/mol. (Table S1) The candidate compounds were purchased from SPECS (Zoetermeer, The Netherlands). Each candidate was rovided as a solid power and dissolved in 100% DMSO (Sigma-Aldrich, MO, USA) to 10 mM as stock. Candidates were screening for their inhibition specificity of eβG verse hβG, which were conducted at pH 7.3 or pH 5.4 in triplicate, respectively. 40 µL purified βG was treated with 10 µL compound solution at 37 °C for 30 min, and sequentially incubated with 50 µL of pNPG (Sigma-Aldrich) at 37 °C for 30 min. Reactions were quenched with 5 µL of 2 N sodium hydroxide (Sigma-Aldrich). Each reaction consisted of 3.75 ng purified βG, 50 µM compound, and 5 mM pNPG in PBS containing 10% DMSO and 0.05% BSA (Sigma-Aldrich). βG-activities were measured by color development of pNP detected on a microplate reader at OD 405 nm. […] Especially, the inhibiting ability against eβG activity was >95% in 7 candidates of eβG specific inhibitors (Table S1).
(§2) Fifty-nine candidate compounds were acquired from the initial virtually screening which was designed to target the bacterial loop of eβG and its active site. The docking energy scores of 59 candidate compounds measured by the DOCK program are -43 to -55 kcal/mol. (Table S1) The candidate compounds were purchased from SPECS (Zoetermeer, The Netherlands). Each candidate was provided as a solid power and dissolved in 100% DMSO (Sigma-Aldrich, MO, USA) to 10 mM as stock. Candidates were screening for their inhibition specificity of eβG verse hβG, which were conducted at pH 7.3 or pH 5.4 in triplicate, respectively. 40 μL purified βG was treated with 10 μL compound solution at 37 °C for 30 min, and sequentially incubated with 50 μL of pNPG (Sigma-Aldrich) at 37 °C for 30 min. Reactions were quenched with 5 μL of 2 N sodium hydroxide (Sigma-Aldrich). Each reaction consisted of 3.75 ng purified βG, 50 μM compound, and 5 mM pNPG in PBS containing 10% DMSO and 0.05% BSA (Sigma-Aldrich). βG-activities were measured by color development of pNP detected on a microplate reader at OD 405 nm. […]
percent of βG activity compared with the untreated control.
Especially, the inhibiting ability against eβG activity was >95% in 7 candidates of eβG specific inhibitors (Table S1).
Table S1. […]

In a further test the target is T2, human βG (hβG) (Homo sapiens, UniProt P08236).
T2 construct: histidine tag (N); made in house; host or cells: E. coli BL21 (DE3)
T2 sequence (P08236 23-651): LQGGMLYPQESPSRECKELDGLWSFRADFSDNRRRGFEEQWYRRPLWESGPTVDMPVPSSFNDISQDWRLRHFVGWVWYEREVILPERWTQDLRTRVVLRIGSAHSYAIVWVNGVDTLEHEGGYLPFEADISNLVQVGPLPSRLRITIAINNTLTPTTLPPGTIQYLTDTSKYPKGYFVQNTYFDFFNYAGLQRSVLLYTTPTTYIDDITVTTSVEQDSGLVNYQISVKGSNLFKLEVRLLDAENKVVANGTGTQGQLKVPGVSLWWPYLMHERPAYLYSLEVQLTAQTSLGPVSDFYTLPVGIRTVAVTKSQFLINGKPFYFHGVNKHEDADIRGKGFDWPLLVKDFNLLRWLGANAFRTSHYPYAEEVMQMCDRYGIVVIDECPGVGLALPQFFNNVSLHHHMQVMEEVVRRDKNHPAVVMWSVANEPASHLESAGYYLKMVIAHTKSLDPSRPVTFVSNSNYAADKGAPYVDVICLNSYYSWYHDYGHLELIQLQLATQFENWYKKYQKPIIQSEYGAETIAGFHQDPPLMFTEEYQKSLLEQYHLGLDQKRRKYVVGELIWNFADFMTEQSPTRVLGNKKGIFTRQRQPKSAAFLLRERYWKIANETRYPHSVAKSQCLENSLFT
As to the kind of experiment: In vitro βG-activity assay (pNPG hydrolysis), hβG. The format is biochemical. To be noted: pH 5.4, percent of activity vs untreated control. The protocol:
as §1
The candidate compounds were purchased from SPECS (The Netherlands). Each candidate was provided as a solid power and dissolved in 100% DMSO (Sigma-Aldrich) to 10 mM as stock. Candidates were screened for their inhibition specificity of eβG versus hβG, which were conducted at pH 7.3 or pH 5.4, in triplicate, respectively. 40 μL purified βG was treated with 10 μL compound solution at 37°C for 30 min and sequentially incubated with 50 μL of pNPG (Sigma-Aldrich) at 37°C for 30 min. Reactions were quenched with 5 μL of 2 N sodium hydroxide (Sigma-Aldrich). Each reaction consisted of 3.75 ng purified βG, 50 μM compound, and 5 mM pNPG in PBS containing 10% DMSO and 0.05% BSA (Sigma-Aldrich). βG-activities were measured by color development of pNP detected on a microplate reader at OD 405 nm.
as §2, with “(Table” for “Fifty-nine candidate compounds were acquired from the initial virtually screening which was designed to target the bacterial loop of eβG and its active site. The docking energy scores of 59 candidate compounds measured by the DOCK program are -43 to -55 kcal/mol. (Table”, “rovided” for “provided”, “µL” for “μL”, “µM” for “μM”
candidate compounds were purchased from SPECS (Zoetermeer, The Netherlands). Each candidate was provided as a solid power and dissolved in 100% DMSO (Sigma-Aldrich, MO, USA) to 10 mM as stock. Candidates were screening for their inhibition specificity of eβG verse hβG, which were conducted at pH 7.3 or pH 5.4 in triplicate, respectively. 40 μL purified βG was treated with 10 μL compound solution at 37 °C for 30 min, and sequentially incubated with 50 μL of pNPG (Sigma-Aldrich) at 37 °C for 30 min. Reactions were quenched with 5 μL of 2 N sodium hydroxide (Sigma-Aldrich). Each reaction consisted of 3.75 ng purified βG, 50 μM compound, and 5 mM pNPG in PBS containing 10% DMSO and 0.05% BSA (Sigma-Aldrich). βG-activities were measured by color development of pNP detected on a microplate reader at OD 405 nm.

T1 sequence (P05804 whole entry): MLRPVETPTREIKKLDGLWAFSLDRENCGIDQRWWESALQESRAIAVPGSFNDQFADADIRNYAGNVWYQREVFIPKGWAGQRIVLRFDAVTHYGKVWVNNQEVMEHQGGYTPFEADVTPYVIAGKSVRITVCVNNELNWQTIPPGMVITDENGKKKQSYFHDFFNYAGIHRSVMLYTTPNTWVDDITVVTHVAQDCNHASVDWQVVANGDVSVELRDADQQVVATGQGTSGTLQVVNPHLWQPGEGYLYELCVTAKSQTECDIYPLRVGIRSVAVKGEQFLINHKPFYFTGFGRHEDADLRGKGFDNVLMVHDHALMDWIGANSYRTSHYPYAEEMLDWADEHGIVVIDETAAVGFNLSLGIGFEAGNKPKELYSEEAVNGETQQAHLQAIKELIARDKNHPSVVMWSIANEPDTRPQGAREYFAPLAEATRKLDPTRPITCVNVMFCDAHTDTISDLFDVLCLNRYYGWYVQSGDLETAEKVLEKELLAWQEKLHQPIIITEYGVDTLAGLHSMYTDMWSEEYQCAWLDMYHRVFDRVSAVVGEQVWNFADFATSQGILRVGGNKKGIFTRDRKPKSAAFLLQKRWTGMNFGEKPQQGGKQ

For `Cc1cc(/C=C2\SC(=Nc3ccc(F)cc3)NC2=O)c(C)n1-c1ccc(S(N)(=O)=O)cc1` [Compound 1135], in test [1], the “eβG activity (%) with 50 μM compound” value worked out at 3.70%. The “hβG activity (%) with 50 μM compound” value on human βG (hβG) came to 118.10%.

Turning to `COc1ccc(N2C(=O)CC(NC3CCCCNC3=O)C2=O)cc1` (stereo not drawn) [Compound 7007], in test [1], the “eβG activity (%) with 50 μM compound” value was 44.30%. At human βG (hβG), the “hβG activity (%) with 50 μM compound” value stood at 105.79%.

With `CN1CCN(Cc2nc3sc4c(c3c(=O)[nH]2)CCCC4)CC1` [Compound 3181], the “eβG activity (%) with 50 μM compound” value in test [1] stood at 30.27%. In addition, the “hβG activity (%) with 50 μM compound” value at human βG (hβG) amounted to 88.02%.

As for `O=C(O)C1CCCCC1C(=O)Nc1ccc(Oc2ccc(Cl)cc2)cc1` (stereo not drawn) [Compound 1013], the “eβG activity (%) with 50 μM compound” value in test [1] came to 34.76%. The “hβG activity (%) with 50 μM compound” value at human βG (hβG) is 126.45%.

With `COc1cc(C(=O)NCC(=N)N)cc(OC)c1OC` [Compound 0015], the “eβG activity (%) with 50 μM compound” value in test [1] was 17.59%. In addition, on human βG (hβG), the “hβG activity (%) with 50 μM compound” value amounted to 108.51%.

Consider `O=C1c2ccccc2C(=O)c2c1cccc2S(=O)(=O)Nc1ccc(Cl)cc1` [Compound 8074], for which the “eβG activity (%) with 50 μM compound” value in test [1] turned out to be 22.15%. Moreover, at human βG (hβG), the “hβG activity (%) with 50 μM compound” value turned out to be 109.09%.

Regarding `COc1ccc(Cl)cc1NC(=O)CC(C(=O)O)N1CCNCC1` (stereo not drawn) [Compound 9183], the “eβG activity (%) with 50 μM compound” value in test [1] was 39.67%. Also, at human βG (hβG), the “hβG activity (%) with 50 μM compound” value stood at 107.36%.

Take `O=[N+]([O-])C12CNCC([N+](=O)[O-])(CNC1)C2` [Compound 8013b]: the “eβG activity (%) with 50 μM compound” value in test [1] was determined as 32.91%. Further, the “hβG activity (%) with 50 μM compound” value at human βG (hβG) is on record as 93.72%.

With `CC(CNS(=O)(=O)c1ccc(Cl)cc1)n1cncn1` (stereo not drawn) [Compound 3379], the “eβG activity (%) with 50 μM compound” value in test [1] is recorded as 31.70%. Besides, on human βG (hβG), the “hβG activity (%) with 50 μM compound” value was 102.56%.

`CC1=C(C)CC(C(=O)Nc2c(C)cccc2C)C(C(=O)O)C1` (stereo not drawn) [Compound 5259]: the “eβG activity (%) with 50 μM compound” value in test [1] was 34.05%. Also, at human βG (hβG), the “hβG activity (%) with 50 μM compound” value was 106.20%.

Consider `CN1CCN(CC(=O)Nc2c(C#N)cnn2-c2ccccc2)CC1` [Compound 0220], for which the “eβG activity (%) with 50 μM compound” value in test [1] worked out at 47.15%. Moreover, the “hβG activity (%) with 50 μM compound” value at human βG (hβG) is on record as 113.55%.

Turning to `Cc1ccccc1NC(=O)c1cccc(NC(=O)c2cc(Cl)c(Cl)cc2C(=O)O)c1` [Compound 1306], the “eβG activity (%) with 50 μM compound” value in test [1] came out at 29.20%. The “hβG activity (%) with 50 μM compound” value at human βG (hβG) is listed as 105.45%.

In the case of `COc1cc2ccccc2cc1C(=O)N1CCN(C)CC1` [Compound 0030], the “eβG activity (%) with 50 μM compound” value in test [1] was 58.19%. The “hβG activity (%) with 50 μM compound” value at human βG (hβG) amounted to 111.74%.

On to `O=C(O)c1ccc(NS(=O)(=O)c2ccc(Br)cc2)cc1O` [Compound 4465], for which the “eβG activity (%) with 50 μM compound” value in test [1] came out at 10.04%. The “hβG activity (%) with 50 μM compound” value at human βG (hβG) was 99.50%.

As to `O=S(=O)(c1ccc(Br)cc1)N1CCNCC1` [Compound 8329], the “eβG activity (%) with 50 μM compound” value in test [1] was determined as 33.19%. At human βG (hβG), the “hβG activity (%) with 50 μM compound” value came out at 97.77%.

In the case of `CCc1sc(NC(=O)C2CCCCC2C(=O)O)nc1-c1ccccc1` (stereo not drawn) [Compound 1501], the “eβG activity (%) with 50 μM compound” value in test [1] is 27.85%. The “hβG activity (%) with 50 μM compound” value on human βG (hβG) is given as 105.12%.

`N=c1c(Nc2ccc(F)cc2)nnc(N)n1C(=O)c1ccccc1` [Compound 2074]: in test [1], the “eβG activity (%) with 50 μM compound” value came to 12.46%. Moreover, the “hβG activity (%) with 50 μM compound” value at human βG (hβG) was 101.07%.

On to `CCN(CC)S(=O)(=O)c1cccc(N=Nc2c(O)[nH]c(=O)[nH]c2=O)c1` [Compound 9274], for which the “eβG activity (%) with 50 μM compound” value in test [1] was determined as 32.34%. Moreover, at human βG (hβG), the “hβG activity (%) with 50 μM compound” value was found to be 106.69%.
